Counter-ions that a name gives are not always drawn.
Key:
[1] = acute toxicity tested by intravenous injection to CD-1 mice (male); settings: mouse, in vivo
photo-toxicity tests = type: in vivo
choroidal vessels = type: in vivo, normal pigmented rabbits
Source text: The predetermined regions (that is, said spots) of the blood vessels to be irradiated with the laser beam had been marked preliminarily by photo-coagulation by means of an argon laser beam. Immediately after the irradiation with the laser at 664 nm, as well as one week after the irradiation and one month after the irradiation with the laser at 664 nm, the fundus of the eyes under test was examined by fluorescein angiography.
The eye so treated was subsequently observed under light microscope at the end of 2 hours after the laser irradiation.
The laser-irradiated parts of the eye so treated were subsequently observed under light microscope at the end of 1 hour after the laser irradiation.

[2] = metabolic speed and level in the blood plasma; type: in vivo
serum albumin = assay: affinity to the serum albumin; type: binding
[3] = liposolubility / penetration into normal tissues; type: physicochemical
in vivo cells = assay: transfer into the in vivo cells; settings: not by diffusion
light absorption = type: physicochemical; settings: can absorb well
[4] = test system: active lesions of the neovascular tissues; assay: accumulation in neovascular tissues; settings: in vivo
[5] = parameters: species or system normal pigmented rabbits; settings: rabbit, in vivo
[6] = test system: choroidal neovascularization; assay: occlusion of choroidal neovascularization upon irradiation with laser beam; type: in vivo; settings: irradiation with a laser beam at 664 nm
[7] = cited from earlier work

Which results are given for `C=Cc1c(C)c2cc3nc(c(CC(=O)N[C@@H](CC(=O)O)C(=O)O)c4[nH]c(cc5nc(cc1[nH]2)C(C)=C5CC)c(C)c4C(=O)O)[C@@H](CCC(=O)O)[C@@H]3C` [mono-L-aspartyl chlorin e6 tetra-sodium salt]?
LD50 [1]: 164 mg/kg; adverse side reactions such as erythema and edema (photo-toxicity tests): does not involve adverse side reactions such as erythema and edema; obstruction of choroidal blood vessels (choriocapillaris) maintained, light microscope (choroidal vessels; 25 mg/kg i.v., laser immediately after injection, 1 hour after irradiation): the choroidal blood vessels, more particularly the choriocapillaris continued to have been obstructed; endothelial cells of the chorio-capillaris / choriocapillaris, light microscope (choroidal vessels; 25 mg/kg i.v., laser immediately after injection, 2 hours after irradiation): endothelial cells of the chorio-capillaris had been swollen and necrotized and the choriocapillaris were obstructed; extent of damages incurred in the choroidal vessels, laser one hour after versus immediately after injection (choroidal vessels; 25 mg/kg i.v., observed commonly for all the doses): the extent of damages incurred in the choroidal vessels is reduced at the laser irradiation as made one hour after the intravenous injection; degree of obstruction of choroidal vessels compared with argon laser photo-coagulation (choroidal vessels; 25 mg/kg, laser immediately after administration, one week after irradiation, light microscope): the choroidal vessels were obstructed to a substantially same degree in the former case and the latter case; obstruction in the choroidal vessels (choroidal vessels; 25, 50 and 100 mg/kg i.v., 664 nm laser immediately after injection, fluorescein angiography one week after irradiation): the obstruction took place in the choroidal vessels at all the doses; degree of the obstruction in the choroidal vessels, dose dependence (choroidal vessels; 25, 50 and 100 mg/kg i.v., laser immediately after injection, one week after irradiation): the degree of the obstruction in the choroidal vessels increased with an increased doses; level in the blood plasma ([2]; at the end of 10 hours from the administration): 1/500; metabolic speed relative to photofrin ([2]; faster than photofrin): at least 10 times; affinity to the serum albumin (serum albumin): has a nature of exhibiting affinity to the serum albumin; liposolubility [3]: low liposolubility; penetration and diffusion into healthy normal tissues having the barrier in vivo [3]: hard to penetrate and diffuse into the healthy normal tissues having the barrier in vivo; mode of transfer into the in vivo cells (in vivo cells): by the phagocytosis and/or pinocytosis; light absorption wavelength (light absorption): 664 nm; accumulation in the active lesions of the neovascular tissues [4]: can concentrate into and be accumulated well in the active lesions of the neovascular tissues; level in the blood after the administration [5]: can decrease quickly during an earlier period after the administration; metabolism after administration into a human or animal body [5]: can be metabolized well after its administration into a human or animal body; necrosis of the vascular endothelial cells and occlusion of choroidal neovascularization [6]: cause necrosis of the vascular endothelial cells and occlusion of choroidal neovascularization; uptake into and excretion from the human and animal body [7]: quickly uptaken into and excreted from the human and animal body

Reference: USRE37180E, “Photochemotherapeutical obstruction of newly-formed blood vessels” (Meiji Seika Kaisha, Ltd., priority 1995, dated 2001)
